Measured values reported in US9855249B2, “Isoxazole compounds and methods for the treatment of cystic fibrosis” (FLATLEY DISCOVERY LAB, LLC, priority 2014, dated 2018).

System: CFTR mediated chloride current in Primary CF airway epithelial cells
Assay: Equivalent current assay in primary CF airway epithelial cells (NAUC)
Type: cell-based
Settings: 24 h treatment, stimulated with forskolin and VX770, normalized to positive control 3 μM VX809
Experimental: Primary CF airway epithelial cells were obtained from the UNC Cystic Fibrosis Tissue Procurement and Cell Culture Core. The cells are grown at 37° C. in a Heracell 150i incubator using growth media (BEGM, Fischer). Cells were then transferred to differentiation media (ALI, UNC) for a minimum of 4 weeks on coated Costar snapwells. Two days before the Ussing assay the mucus on the apical surface of the cells was aspirated after incubating with 200 μL of differentiation Media for at least thirty (30) minutes. One day before the Ussing assay test compounds were added to the basolateral surface of the cells at various test concentrations dissolved in DMSO. Duplicate wells were prepared giving a n=3 or n=4 protocol.
Cells were treated for 24 hours with various combinations and concentrations of the test articles, reference standard (3 μM VX809, positive control). Compounds stock solutions were prepared in DMSO and diluted 1/1000 into ALI media to their final assay concentration. Cells were treated with combination solutions (2 mL of each dilution) and incubated at 37° C. for 24 h.
For the equivalent current assay, cells on four Transwell (24-well) plates were treated. Each Transwell plate was filled with 200 μl of HBS on the apical surface and 2 ml on the basolateral surface. Plates were placed horizontally in a heated mount at 37° C., and equilibrated for several minutes. Resting current was measured for 15 min and then blocked by the apical addition of 5 μM benzamil. After 20 min, 10 μM forskolin and 1 μM VX770 were added to both the apical and basolateral side to stimulate CFTR. An increase in chloride current is seen as an upward deflection of the trace. After another 30 min, CFTR-172 (a CFTR inhibitor, 2 μM) and/or bumetanide (20 μM) was added to block CFTR mediated chloride current.
The raw data, current vs. time for the Ussing chamber (sampling interval: 10 s) and voltage vs. time and resistance vs. time for the equivalent current assay (sampling interval: 5 minutes) were transferred to Excel (Microsoft Office Professional, version 14.0.7106.5003) for analysis. CFTR specific current was measured as the average amplitude of the increase in current elicited upon addition forskolin and ending upon addition of the CFTR channel specific blocker CFTR-172. This average is equivalent to the sum of the average forskolin activated and the average VX770-potentiated currents. The average current measured in vehicle (0.1% DMSO) treated cells, Iv, was subtracted from the current for the test article, ITA, or from the corrector reference standard VX809 (3 μM ISTD. For replicate measurements, the average vehicle subtracted response for the test article, was normalized to the average vehicle subtracted […] response of the reference corrector VX809 (3 μM). INSC=(ITA−IV)(ave)/(ISTD−IV)(ave) (Equation 1)
A second endpoint, for the equivalent current assay, evaluated was NAUC, the normalized area under the curve (AUC) measuring the response after addition of forskolin and VX770 to the time point right before the addition of the CFTR inhibitor. The AUC is effectively the average response multiplied by the duration of the response. The AUC of the test article, AUCTA was then corrected by subtracting the average vehicle response, AUCV,ave over the same time range, and normalized as for the inhibitor-sensitive current to the difference of the corrector reference standard VX809 (3 μM VX809r,ave and the vehicle response: NAUCTA=[AUCTA−AUCV,ave]/[AUCVx809r,ave−AUCV,ave](Equation 2).
The normalized value for DMSO is 0.0 and for VX-809 alone is 1.0. Combinations of compounds with VX-809 that give normalized values greater than 1.0 show activity in the combination assay. A value of 2 means the test compound doubles the effect to VX-809 alone.
Experiments were run with a minimum of n=4 replicates per concentration. […]

Row | SMILES | NAUC (normalized area under the curve), Test Conc 3 uM | NAUC (normalized area under the curve), Test Conc 10 uM
1 | O=C(NCC(c1ccccc1)c1ccccc1)c1cc(-c2ccc(F)cc2)on1 [Example 32] | + (NAUC “+” refers to an observed NAUC <140% of positive control) | + (NAUC “+” refers to an observed NAUC <140% of positive control)
2 | O=C(NCC1CCCCC1)c1cc(-c2ccc(F)cc2)on1 [Example 33] | + (NAUC “+” refers to an observed NAUC <140% of positive control) | + (NAUC “+” refers to an observed NAUC <140% of positive control)
3 | O=C(NCCOc1ccccc1)c1cc(-c2ccc(F)cc2)on1 [Example 34] | + (NAUC “+” refers to an observed NAUC <140% of positive control) | + (NAUC “+” refers to an observed NAUC <140% of positive control)
4 | O=C(NCC(F)(F)F)c1cc(-c2ccc(F)cc2)on1 [Example 35] | ++ (NAUC “++” refers to an observed NAUC 170-140% of positive control) | +++ (NAUC “+++” refers to an observed NAUC >170% of positive control)
5 | O=C(NCC1CC1)c1cc(-c2ccc(F)cc2)on1 [Example 36, N-(cyclopropylmethyl)-5-(4-fluorophenyl)isoxazole-3-carboxamide] | ++ (NAUC “++” refers to an observed NAUC 170-140% of positive control) | +++ (NAUC “+++” refers to an observed NAUC >170% of positive control)
6 | O=C(NCCN1CCOCC1)c1cc(-c2ccc(F)cc2)on1 [Example 37, 5-(4-fluorophenyl)-N-(2-morpholinoethyl)isoxazole-3-carboxamide] | + (NAUC “+” refers to an observed NAUC <140% of positive control) | ++ (NAUC “++” refers to an observed NAUC 170-140% of positive control)
7 | O=C(NCCCCC(=O)N1CCC1)c1cc(-c2ccccc2)on1 [Example 38, N-(5-(azetidin-1-yl)-5-oxopentyl)-5-phenylisoxazole-3-carboxamide] | +++ (NAUC “+++” refers to an observed NAUC >170% of positive control) | +++ (NAUC “+++” refers to an observed NAUC >170% of positive control)
8 | CN1CCN(C(=O)CCCCNC(=O)c2cc(-c3ccccc3)on2)CC1 [Example 43, N-(5-(4-methylpiperazin-1-yl)-5-oxopentyl)-5-phenylisoxazole-3-carboxamide] | +++ (NAUC “+++” refers to an observed NAUC >170% of positive control) | +++ (NAUC “+++” refers to an observed NAUC >170% of positive control)
9 | O=C(NCCC(=O)N1CCC1)c1cc(-c2ccccc2)on1 [Example 44, N-(3-(azetidin-1-yl)-3-oxopropyl)-5-phenylisoxazole-3-carboxamide] | +++ (NAUC “+++” refers to an observed NAUC >170% of positive control) | +++ (NAUC “+++” refers to an observed NAUC >170% of positive control)
10 | CN1CCN(C(=O)CCNC(=O)c2cc(-c3ccccc3)on2)CC1 [Example 48] | +++ (NAUC “+++” refers to an observed NAUC >170% of positive control) | +++ (NAUC “+++” refers to an observed NAUC >170% of positive control)
11 | O=C(NCCC(=O)N1CCC1)c1cc(-c2ccc(F)cc2)no1 [Example 51, N-(3-(azetidin-1-yl)-3-oxopropyl)-3-(4-fluorophenyl)isoxazole-5-carboxamide] | ++ (NAUC “++” refers to an observed NAUC 170-140% of positive control) | +++ (NAUC “+++” refers to an observed NAUC >170% of positive control)
12 | CN1CCN(C(=O)CCNC(=O)c2cc(-c3ccc(F)cc3)no2)CC1 [Example 52, 3-(4-fluorophenyl)-N-(3-(4-methylpiperazin-1-yl)-3-oxopropyl)isoxazole-5-carboxamide] | ++ (NAUC “++” refers to an observed NAUC 170-140% of positive control) | +++ (NAUC “+++” refers to an observed NAUC >170% of positive control)
13 | O=C(NCCCCC(=O)N1CCC1)c1cc(-c2ccc(F)cc2)no1 [Example 53, N-(5-(azetidin-1-yl)-5-oxopentyl)-3-(4-fluorophenyl)isoxazole-5-carboxamide] | ++ (NAUC “++” refers to an observed NAUC 170-140% of positive control) | +++ (NAUC “+++” refers to an observed NAUC >170% of positive control)
14 | CN1CCN(C(=O)CCCCNC(=O)c2cc(-c3ccc(F)cc3)no2)CC1 [Example 54, 3-(4-fluorophenyl)-N-(5-(4-methylpiperazin-1-yl)-5-oxopentyl)isoxazole-5-carboxamide] | ++ (NAUC “++” refers to an observed NAUC 170-140% of positive control) | +++ (NAUC “+++” refers to an observed NAUC >170% of positive control)
15 | O=C(NCCCCC(=O)N1CCC1)c1cc(-c2ccccc2)no1 [Example 55, N-(5-(azetidin-1-yl)-5-oxopentyl)-3-phenylisoxazole-5-carboxamide] | ++ (NAUC “++” refers to an observed NAUC 170-140% of positive control) | +++ (NAUC “+++” refers to an observed NAUC >170% of positive control)
16 | CN1CCN(C(=O)CCCCNC(=O)c2cc(-c3ccccc3)no2)CC1 [Example 59] | +++ (NAUC “+++” refers to an observed NAUC >170% of positive control) | +++ (NAUC “+++” refers to an observed NAUC >170% of positive control)
17 | O=C(NCCC(=O)N1CCC1)c1cc(-c2ccccc2)no1 [Example 60, N-(3-(azetidin-1-yl)-3-oxopropyl)-3-phenylisoxazole-5-carboxamide] | +++ (NAUC “+++” refers to an observed NAUC >170% of positive control) | +++ (NAUC “+++” refers to an observed NAUC >170% of positive control)
18 | CN1CCN(C(=O)CCNC(=O)c2cc(-c3ccccc3)no2)CC1 [Example 63] | +++ (NAUC “+++” refers to an observed NAUC >170% of positive control) | +++ (NAUC “+++” refers to an observed NAUC >170% of positive control)
